Results: patent US20200239530A1, “COMPOUNDS AND METHODS OF MODULATING PROTEIN DEGRADATION” (Vividion Therapeutics, Inc., priority 2017, published 2020)
Where two headings read alike, the source gives them in different places.

Legend:
Test in all cases: Cysteine liganding, probe competition
Type in all cases: binding
UniProt O60683 = target: T1, UniProt O60683 (Homo sapiens, UniProt O60683)
T1 construct: 200 μL of lysate containing 5 mg/ml proteome was treated with 2 μL of 100× compound stock; endogenous in cells
T1 sequence (O60683 whole entry, change not shown): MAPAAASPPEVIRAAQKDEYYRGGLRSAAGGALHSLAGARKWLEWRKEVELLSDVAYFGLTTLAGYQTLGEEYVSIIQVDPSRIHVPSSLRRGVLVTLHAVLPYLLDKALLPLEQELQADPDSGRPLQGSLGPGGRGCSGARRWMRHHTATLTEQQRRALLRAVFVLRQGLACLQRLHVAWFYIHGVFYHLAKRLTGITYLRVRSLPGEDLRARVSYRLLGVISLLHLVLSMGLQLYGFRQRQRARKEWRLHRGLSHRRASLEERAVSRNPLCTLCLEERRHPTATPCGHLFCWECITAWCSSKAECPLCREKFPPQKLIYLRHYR
Source text: (§1) The following 96-well sample prep protocol was used for sample preparation.

UniProt Q96BF6 = target: T2, UniProt Q96BF6 (Homo sapiens, UniProt Q96BF6); conditions: for inhibition at 100 µM / inhibition at 500 µM: read-out: percent inhibition
T2 construct: Cells were resuspended in cold PBS on ice and sonicated with a probe sonicator to achieve lysis; endogenous in cells
T2 sequence (Q96BF6 1-587): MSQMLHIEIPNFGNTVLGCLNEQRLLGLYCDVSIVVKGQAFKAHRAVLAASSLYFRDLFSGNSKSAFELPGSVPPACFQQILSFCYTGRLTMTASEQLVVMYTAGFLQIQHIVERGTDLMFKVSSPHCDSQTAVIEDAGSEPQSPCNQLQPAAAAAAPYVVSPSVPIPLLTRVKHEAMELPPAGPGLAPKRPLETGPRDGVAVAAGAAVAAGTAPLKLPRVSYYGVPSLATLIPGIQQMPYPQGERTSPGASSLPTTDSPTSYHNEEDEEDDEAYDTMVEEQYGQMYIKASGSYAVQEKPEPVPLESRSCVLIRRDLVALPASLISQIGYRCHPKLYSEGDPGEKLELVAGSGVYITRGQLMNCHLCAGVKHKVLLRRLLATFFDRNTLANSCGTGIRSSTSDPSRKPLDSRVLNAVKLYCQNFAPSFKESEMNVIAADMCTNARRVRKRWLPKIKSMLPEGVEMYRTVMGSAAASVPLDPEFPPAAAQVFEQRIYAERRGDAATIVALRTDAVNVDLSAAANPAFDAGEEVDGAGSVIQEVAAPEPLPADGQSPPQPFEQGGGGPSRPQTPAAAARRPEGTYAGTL
Source text: as §1

UniProt Q9UPQ4 = target: T3, UniProt Q9UPQ4 (Homo sapiens, UniProt Q9UPQ4)
T3 construct: 200 μL of lysate containing 5 mg/ml proteome was treated with 2 μL of 100× compound stock; endogenous in cells
T3 sequence (Q9UPQ4 1-493): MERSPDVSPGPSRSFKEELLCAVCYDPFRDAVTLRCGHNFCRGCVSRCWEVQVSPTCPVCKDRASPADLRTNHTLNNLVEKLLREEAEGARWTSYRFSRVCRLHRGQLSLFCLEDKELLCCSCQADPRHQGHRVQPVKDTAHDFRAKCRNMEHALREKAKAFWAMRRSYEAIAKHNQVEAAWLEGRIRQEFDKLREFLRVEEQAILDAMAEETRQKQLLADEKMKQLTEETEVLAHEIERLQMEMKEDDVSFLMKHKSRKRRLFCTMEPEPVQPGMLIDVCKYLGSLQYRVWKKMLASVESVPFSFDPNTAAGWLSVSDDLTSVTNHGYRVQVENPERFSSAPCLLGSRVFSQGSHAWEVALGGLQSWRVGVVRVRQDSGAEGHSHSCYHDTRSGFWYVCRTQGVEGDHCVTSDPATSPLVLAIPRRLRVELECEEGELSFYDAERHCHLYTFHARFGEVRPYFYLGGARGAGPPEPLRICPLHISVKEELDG
Source text: as §1

UniProt Q8IWR1 = target: T4, UniProt Q8IWR1 (Homo sapiens, UniProt Q8IWR1)
T4 construct: 200 μL of lysate containing 5 mg/ml proteome was treated with 2 μL of 100× compound stock; endogenous in cells
T4 sequence (Q8IWR1 1-403): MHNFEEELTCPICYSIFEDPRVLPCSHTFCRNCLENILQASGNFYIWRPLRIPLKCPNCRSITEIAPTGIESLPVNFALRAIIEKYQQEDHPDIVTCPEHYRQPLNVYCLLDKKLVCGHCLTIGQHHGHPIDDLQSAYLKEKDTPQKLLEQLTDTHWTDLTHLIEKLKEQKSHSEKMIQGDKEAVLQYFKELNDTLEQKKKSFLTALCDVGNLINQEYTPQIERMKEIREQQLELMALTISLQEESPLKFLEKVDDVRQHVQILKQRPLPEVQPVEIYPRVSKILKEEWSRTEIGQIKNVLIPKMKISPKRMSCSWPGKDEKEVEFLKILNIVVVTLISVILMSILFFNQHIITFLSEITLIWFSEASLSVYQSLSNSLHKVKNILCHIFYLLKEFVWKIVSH
Source text: as §1

UniProt O96028 = target: T5, UniProt O96028 (Homo sapiens, UniProt O96028); conditions: 500 uM
T5 construct: Cells were resuspended in cold PBS on ice and sonicated with a probe sonicator to achieve lysis; endogenous in cells
T5 sequence (O96028 whole entry, change not shown): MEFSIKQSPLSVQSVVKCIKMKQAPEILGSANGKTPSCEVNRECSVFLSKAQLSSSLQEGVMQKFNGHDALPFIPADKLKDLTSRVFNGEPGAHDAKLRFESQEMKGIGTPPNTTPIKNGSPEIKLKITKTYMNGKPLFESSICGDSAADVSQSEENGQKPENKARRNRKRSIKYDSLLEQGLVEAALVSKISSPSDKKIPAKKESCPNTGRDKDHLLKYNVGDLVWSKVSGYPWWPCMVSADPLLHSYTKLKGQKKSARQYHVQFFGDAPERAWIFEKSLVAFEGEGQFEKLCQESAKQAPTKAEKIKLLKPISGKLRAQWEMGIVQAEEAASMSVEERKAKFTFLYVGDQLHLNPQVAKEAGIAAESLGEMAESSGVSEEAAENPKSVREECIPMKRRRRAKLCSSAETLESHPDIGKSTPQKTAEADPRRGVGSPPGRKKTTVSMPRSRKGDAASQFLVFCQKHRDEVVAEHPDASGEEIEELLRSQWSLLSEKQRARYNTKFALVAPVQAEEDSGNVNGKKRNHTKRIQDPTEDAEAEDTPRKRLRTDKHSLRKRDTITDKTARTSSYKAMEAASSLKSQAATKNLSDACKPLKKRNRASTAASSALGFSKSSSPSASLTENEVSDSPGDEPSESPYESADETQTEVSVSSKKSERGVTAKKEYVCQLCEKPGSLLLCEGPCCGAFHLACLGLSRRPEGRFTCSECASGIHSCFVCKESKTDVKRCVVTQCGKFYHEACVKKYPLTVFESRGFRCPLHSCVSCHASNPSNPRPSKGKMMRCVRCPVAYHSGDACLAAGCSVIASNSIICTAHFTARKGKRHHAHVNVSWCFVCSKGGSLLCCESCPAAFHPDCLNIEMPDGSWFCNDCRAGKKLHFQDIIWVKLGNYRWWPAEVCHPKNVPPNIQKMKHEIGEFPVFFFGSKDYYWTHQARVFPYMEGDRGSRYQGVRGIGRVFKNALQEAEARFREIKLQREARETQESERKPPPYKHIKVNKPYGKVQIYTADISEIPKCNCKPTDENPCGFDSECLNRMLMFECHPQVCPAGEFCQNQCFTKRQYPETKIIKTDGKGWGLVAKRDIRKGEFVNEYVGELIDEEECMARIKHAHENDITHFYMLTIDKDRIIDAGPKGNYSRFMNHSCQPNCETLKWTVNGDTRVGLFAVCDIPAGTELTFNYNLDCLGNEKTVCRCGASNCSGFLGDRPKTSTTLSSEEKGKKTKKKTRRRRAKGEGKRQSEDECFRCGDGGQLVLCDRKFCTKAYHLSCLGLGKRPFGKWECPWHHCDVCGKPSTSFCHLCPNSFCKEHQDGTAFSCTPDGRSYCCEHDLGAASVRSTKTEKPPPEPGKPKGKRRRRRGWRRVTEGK
Source text: as §1

UniProt Q9HCE7 = target: T6, UniProt Q9HCE7 (Homo sapiens, UniProt Q9HCE7)
T6 construct: 200 μL of lysate containing 5 mg/ml proteome was treated with 2 μL of 100× compound stock; endogenous in cells
T6 sequence (Q9HCE7 whole entry, change not shown): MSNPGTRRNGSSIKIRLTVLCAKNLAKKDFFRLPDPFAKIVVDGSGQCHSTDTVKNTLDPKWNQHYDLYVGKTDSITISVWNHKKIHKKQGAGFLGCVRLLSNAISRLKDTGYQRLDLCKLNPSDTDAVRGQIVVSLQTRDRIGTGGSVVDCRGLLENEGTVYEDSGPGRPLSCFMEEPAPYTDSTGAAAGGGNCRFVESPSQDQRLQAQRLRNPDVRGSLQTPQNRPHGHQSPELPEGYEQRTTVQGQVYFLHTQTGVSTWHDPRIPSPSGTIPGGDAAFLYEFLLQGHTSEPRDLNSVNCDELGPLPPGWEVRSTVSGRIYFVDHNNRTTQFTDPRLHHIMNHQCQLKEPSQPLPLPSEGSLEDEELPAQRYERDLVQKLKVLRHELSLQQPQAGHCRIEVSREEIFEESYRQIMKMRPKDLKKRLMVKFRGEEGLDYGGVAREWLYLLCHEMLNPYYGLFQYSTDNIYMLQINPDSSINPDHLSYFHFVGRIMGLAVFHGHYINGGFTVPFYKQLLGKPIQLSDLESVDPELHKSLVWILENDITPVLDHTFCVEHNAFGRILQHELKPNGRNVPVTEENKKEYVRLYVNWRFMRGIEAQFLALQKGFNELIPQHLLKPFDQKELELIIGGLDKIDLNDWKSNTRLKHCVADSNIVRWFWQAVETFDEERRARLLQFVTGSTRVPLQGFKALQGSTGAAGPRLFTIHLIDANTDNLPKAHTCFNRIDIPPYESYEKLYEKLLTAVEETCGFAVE
Source text: as §1

UniProt Q6ZNB6 = target: T7, UniProt Q6ZNB6 (Homo sapiens, UniProt Q6ZNB6); conditions: for percent inhibition: 100 uM
T7 construct: Cells were resuspended in cold PBS on ice and sonicated with a probe sonicator to achieve lysis; endogenous in cells
T7 sequence (Q6ZNB6 1-911): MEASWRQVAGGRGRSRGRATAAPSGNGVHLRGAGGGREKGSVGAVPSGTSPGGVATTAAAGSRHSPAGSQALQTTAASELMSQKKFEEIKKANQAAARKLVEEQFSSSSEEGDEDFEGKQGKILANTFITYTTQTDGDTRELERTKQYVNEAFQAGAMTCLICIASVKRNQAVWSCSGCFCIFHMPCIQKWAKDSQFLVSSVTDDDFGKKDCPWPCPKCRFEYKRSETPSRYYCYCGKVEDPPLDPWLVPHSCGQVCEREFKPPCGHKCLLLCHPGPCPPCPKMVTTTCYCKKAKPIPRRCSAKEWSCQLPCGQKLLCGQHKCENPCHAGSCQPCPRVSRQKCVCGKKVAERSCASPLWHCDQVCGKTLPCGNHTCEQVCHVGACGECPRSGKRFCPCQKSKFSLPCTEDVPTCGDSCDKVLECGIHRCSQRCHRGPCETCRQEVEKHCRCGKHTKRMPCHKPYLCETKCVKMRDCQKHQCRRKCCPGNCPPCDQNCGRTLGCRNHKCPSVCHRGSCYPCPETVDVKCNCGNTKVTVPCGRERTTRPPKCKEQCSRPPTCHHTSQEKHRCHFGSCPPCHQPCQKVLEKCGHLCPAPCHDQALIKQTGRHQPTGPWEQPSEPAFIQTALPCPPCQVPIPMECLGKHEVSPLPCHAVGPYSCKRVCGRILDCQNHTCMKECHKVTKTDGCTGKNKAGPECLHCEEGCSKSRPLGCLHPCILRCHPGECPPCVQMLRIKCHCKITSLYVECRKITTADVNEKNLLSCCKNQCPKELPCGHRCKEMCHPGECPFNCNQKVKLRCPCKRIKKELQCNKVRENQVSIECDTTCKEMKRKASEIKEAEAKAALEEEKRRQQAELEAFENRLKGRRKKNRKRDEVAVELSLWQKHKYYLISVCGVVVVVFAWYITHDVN
Source text: as §1

[1] = read-out: KB02_100 uM_percent_inhibition
[2] = 500 uM, read-out: KB02_500 uM_percent_inhibition
[3] = read-out: KB05_100 uM_percent_inhibition

Row | Compound | inhibition at 100 µM (UniProt O60683; [1]) [%] | percent inhibition (UniProt Q96BF6; 100 uM) [%] | inhibition at 100 µM (UniProt Q96BF6; 100 uM) [%] | percent inhibition (UniProt Q96BF6; 500 uM) [%] | inhibition at 500 µM (UniProt Q96BF6; 500 uM) [%] | inhibition at 100 µM (UniProt Q9UPQ4; 100 uM, read-out: KB02_100 uM_percent_inhibition) [%] | inhibition at 500 µM (UniProt Q9UPQ4; [2]) [%] | inhibition at 100 µM (UniProt Q8IWR1; [1]) [%] | KB02_500 uM_percent_inhibition (UniProt Q8IWR1; 500 uM) [%] | inhibition at 500 µM (UniProt Q8IWR1; [2]) [%] | inhibition at 100 µM (UniProt O60683; [3]) [%] | KB05_500 uM_percent_inhibition (UniProt O96028) [%] | inhibition at 100 µM (UniProt Q9HCE7; read-out: percent_inhibition) [%] | percent inhibition (UniProt Q6ZNB6) [%] | inhibition at 100 µM (UniProt Q6ZNB6; read-out: percent inhibition) [%] | inhibition at 100 µM (UniProt Q8IWR1; [3]) [%] | KB03_500 uM_percent_inhibition (UniProt O96028) [%] | percent_inhibition (UniProt Q9HCE7; 100 uM) [%] | KB03_500 uM_percent_inhibition (UniProt Q9UPQ4; 500 uM) [%]
1 | COc1ccc2c(c1)CCCN2C(=O)CCl [KB02] | 51 | 32 | 38 | 32 | 46 | 10 | 27 | 46 | 66 | 58 | – | – | – | – | – | – | – | – | –
2 | C=CC(=O)N(c1ccccc1)c1ccc(Br)cc1 [KB05] | – | – | 25 | 56 | 47 | – | – | – | – | – | 37 | 79 | 52 | 36 | 21 | 38 | – | – | –
3 | O=C(CCl)Nc1cc(C(F)(F)F)cc(C(F)(F)F)c1 [KBO3] | – | – | – | – | – | – | – | – | – | – | – | – | – | 20 | – | – | 78 | 71 | 32
